Where two headings read alike, the source gives them in different places.
Assays:
[1] = tested on: isolated rat liver mitochondria; experiment: Oxygen consumption, Clark-type oxygen electrode; assay type: biochemical
HepG2 cells [2] = settings: cited from earlier work
[3] = tested on: p53 (p53-bla HCT-116 cells); experiment: p53 β-lactamase reporter gene assay; assay type: cell-based, human; settings: 16 h incubation; mean±SD of three experiments
HepG2 cells [4] = experiment: Intracellular ATP content (cell viability) assay; assay type: cell-based, human
[5] = tested on: Caenorhabditis elegans strain PE255; experiment: In vivo C. elegans ATP status assay
[6] = tested on: Nrf2/ARE (ARE-bla HepG2 cells); experiment: ARE β-lactamase reporter gene assay; assay type: cell-based, human; settings: Homo sapiens, HepG2; 16 h incubation; mean±SD of three experiments; read-out: ARE (HepG2) EC50
[7] = tested on: HeLa cells expressing YFP-Parkin; experiment: Parkin translocation assay; assay type: cell-based, human
rat primary hepatocytes [8] = tested on: rat primary hepatocytes
HepG2 cells [9] = experiment: ROS-Glo hydrogen peroxide (ROS) assay; assay type: cell-based, human
HepG2 cells [10] = experiment: cells; settings: Homo sapiens
hNSC = experiment: MMP assay in human neural stem cells (hNSC); assay type: cell-based; settings: Homo sapiens, Neural stem cell, 1 h, read-out: hNSC IC50 (MMP)
rat primary hepatocytes [11] = experiment: MMP assay in rat primary hepatocytes; settings: Rattus norvegicus, Hepatocyte
[12] = tested on: Caenorhabditis elegans (Bristol N2); experiment: C. elegans larval development and growth assay

O=C(Nc1ccccc1)Nc1cnns1 [Thidiazuron]
Potential Mechanism [1]: Uncoupler | I-ADP, % of control (O2 consumption rate) ([1]; 0.16 µM): 93 (51.1) % of control | I-sub, % of control (O2 consumption rate) ([1]; 0.16 µM): 104 (13.6) % of control | II-ADP, % of control (O2 consumption rate) ([1]; 0.16 µM): 91 (80.1) % of control | II-sub, % of control (O2 consumption rate) ([1]; 0.16 µM): 100 (24.5) % of control | I-ADP, % of control (O2 consumption rate) ([1]; 0.8 µM): 74 (40.3) % of control | I-sub, % of control (O2 consumption rate) ([1]; 0.8 µM): 95 (12.4) % of control | II-ADP, % of control (O2 consumption rate) ([1]; 0.8 µM): 93 (82.2) % of control | II-sub, % of control (O2 consumption rate) ([1]; 0.8 µM): 106 (26.1) % of control | I-ADP, % of control (O2 consumption rate) ([1]; 4 µM): 87 (47.5) % of control | I-sub, % of control (O2 consumption rate) ([1]; 4 µM): 134 (17.5) % of control | II-ADP, % of control (O2 consumption rate) ([1]; 4 µM): 95 (83.6) % of control | II-sub, % of control (O2 consumption rate) ([1]; 4 µM): 119 (29.3) % of control | I-ADP, % of control (O2 consumption rate) ([1]; 20 µM): 99 (54.4) % of control | I-sub, % of control (O2 consumption rate) ([1]; 20 µM): 311 (40.8) % of control | II-ADP, % of control (O2 consumption rate) ([1]; 20 µM): 104 (92.1) % of control | II-sub, % of control (O2 consumption rate) ([1]; 20 µM): 269 (66.2) % of control | MMP assays efficacy (%) qHTS-HepG2 (HepG2 cells [2]): -126±9% | IC50 (HepG2 cells [2]; read-out: MMP assays IC50 (µM), qHTS-HepG2): 3.43 ± 0.73 µM | p53 (HCT-116) EC50 [3]: Inactive | ATP (HepG2, galactose) IC50 (HepG2 cells [4]): Inactive | ATP (HepG2, glucose) IC50 (HepG2 cells [4]): Inactive | LUM: mean difference in luminescence (ATP content) relative to plate controls ([5]; 0.5 µM): 0.0432 | LUM: mean difference in luminescence (ATP content) relative to plate controls ([5]; 1 µM): 0.1041 | LUM: mean difference in luminescence (ATP content) relative to plate controls ([5]; 5 µM): 0.03776 | LUM: mean difference in luminescence (ATP content) relative to plate controls ([5]; 10 µM): 0.1711 | LUM: mean difference in luminescence (ATP content) relative to plate controls ([5]; 25 µM): 0.3608 | LUM: mean difference in luminescence (ATP content) relative to plate controls ([5]; 50 µM): 0.588 | LUM: mean difference in luminescence (ATP content) relative to plate controls ([5]; 75 µM): 0.6504 | LUM: mean difference in luminescence (ATP content) relative to plate controls ([5]; 100 µM): 0.4761 | effect on ATP content (in words) ([5]; 0.5–100μM): statistically significant decreases in ATP content | minimal effective concentration ([5]; Caenorhabditis elegans, read-out: LEC LUM: lowest effect concentration for luminescence, a measure of nematode ATP content): 50 µM | EC50 [6]: 27.3 ± 9.74 µM | Parkin recruitment [7]: Inactive | MMP assays efficacy (%) Rat Hepatocytes (rat primary hepatocytes [8]): -136±46% | Rat hepatocytes (efficacy) (MMP) (rat primary hepatocytes [8]): 14.7±2.52 ( −98.5±15.2 ) % | ROS (HepG2) EC50 (HepG2 cells [9]): Inactive | IC50 (HepG2 cells [10]; HepG2, 1 h, read-out: HepG2 IC50 Galactose (MMP)): 14.6 µM | IC50 (HepG2 cells [10]; HepG2, 1 h, read-out: HepG2 IC50 Glucose (MMP)): 12 µM | IC50 (HepG2 cells [10]; HepG2, read-out: MMP assays IC50 (µM) HepG2): 6.31 µM | Emax (HepG2 cells [10]; HepG2, read-out: MMP assays efficacy (%) HepG2): 104% | IC50 (hNSC): 8.39 µM | IC50 (rat primary hepatocytes [11]; 1 h, read-out: Rat hepatocytes IC50 (MMP)): 14.7 µM | IC50 (rat primary hepatocytes [11]; read-out: MMP assays IC50 (µM) Rat Hepatocytes): 4.56 ± 2.78 µM | EXT: mean difference in nematode size relative to plate controls ([12]; 0.5 µM): 0.1764 | EXT: mean difference in nematode size relative to plate controls ([12]; 1 µM): 0.07124 | EXT: mean difference in nematode size relative to plate controls ([12]; 5 µM): 0.08978 | EXT: mean difference in nematode size relative to plate controls ([12]; 10 µM): 0.07446 | EXT: mean difference in nematode size relative to plate controls ([12]; 25 µM): 0.09242 | EXT: mean difference in nematode size relative to plate controls ([12]; 50 µM): 0.2069 | EXT: mean difference in nematode size relative to plate controls ([12]; 75 µM): 0.07987 | effect on larval growth (in words) ([12]; 0.5–100μM): did not affect growth
